pEC50: −log10 of the molar value.
Biological target: T1, human glucocorticoid receptor (GR) (Homo sapiens, UniProt P04150)
T1 construct: expressed in transfected cells; host or cells: HEK293, transient transfection, CMV promoter plasmid
T1 sequence (P04150 1-777): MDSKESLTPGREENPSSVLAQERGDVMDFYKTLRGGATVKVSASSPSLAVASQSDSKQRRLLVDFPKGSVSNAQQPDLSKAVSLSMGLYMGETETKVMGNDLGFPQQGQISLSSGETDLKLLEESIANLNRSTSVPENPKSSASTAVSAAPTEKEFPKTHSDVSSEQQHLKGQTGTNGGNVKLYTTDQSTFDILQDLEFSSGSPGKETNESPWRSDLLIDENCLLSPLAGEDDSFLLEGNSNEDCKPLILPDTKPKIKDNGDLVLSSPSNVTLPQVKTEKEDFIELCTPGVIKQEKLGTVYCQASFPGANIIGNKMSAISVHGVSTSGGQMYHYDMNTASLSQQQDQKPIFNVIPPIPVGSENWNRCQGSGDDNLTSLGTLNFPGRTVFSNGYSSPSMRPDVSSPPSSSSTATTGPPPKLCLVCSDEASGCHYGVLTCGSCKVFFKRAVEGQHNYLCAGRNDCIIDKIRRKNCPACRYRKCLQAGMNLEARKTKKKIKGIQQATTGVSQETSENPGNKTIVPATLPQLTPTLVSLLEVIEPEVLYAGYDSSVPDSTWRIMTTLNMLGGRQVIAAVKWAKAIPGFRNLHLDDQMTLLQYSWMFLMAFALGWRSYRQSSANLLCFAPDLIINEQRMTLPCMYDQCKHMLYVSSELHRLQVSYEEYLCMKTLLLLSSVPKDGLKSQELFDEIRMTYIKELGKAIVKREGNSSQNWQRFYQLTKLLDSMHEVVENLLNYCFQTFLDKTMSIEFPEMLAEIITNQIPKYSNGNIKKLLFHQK
Experiment: Nuclear hormone receptor functional modulation assay (GRE-luciferase reporter, HEK293), GR
Format: cell-based
Settings: agonist mode, mean of n=4 or 5
From the text: The solvents, reagents, and ligands employed in the functional assay are readily available from commercial sources, or can be prepared by one of ordinary skill in the art.
Human embryonic kidney HEK293 cells are transfected with steroid hormone receptor and reporter gene plasmids using Fugene™ transfection reagent. Briefly, the reporter plasmid containing two copies of probasin ARE and TK(thymidine kinase) promoter upstream of the luciferase reporter cDNA, is transfected into HEK293 cells with a plasmid constitutively expressing human androgen receptor (AR) using viral CMV(cytomegalovirus) promoter. The reporter plasmid containing two copies of GRE and TK promoter upstream of the luciferase reporter cDNA is transfected with a plasmid constitutively expressing either human glucocorticoid receptor (GR), human mineralocorticoid receptor (MR), or human progesterone receptor (PR) using viral CMV promoter. […] After 24-hours incubation with test compounds, cells are lysed and luciferase activity is determined using standard techniques.
Data are fitted to a four parameter-fit logistic curve fit to determine EC50 values. […] IC50 values may be determined similarly using antagonist mode assay data. Percent inhibitions may also be determined relative to the response in the presence of agonist alone, as described above.

efficacy in activating transcription, GR (relative to 100 nM dexamethasone): about 44%
pEC50 (read-out: EC50 in activating transcription, GR): ~8.74
SMILES: CC/C(=C1\c2ccc(F)cc2OCc2ncccc21)c1cccc(NS(C)(=O)=O)c1 [Compound (I), (E)-N-{3-[1-(8-Fluoro-11H-10-oxa-1-aza-dibenzo[a,d]cyclohepten-5-ylidene)-propyl]-phenyl}-methanesulfonamide]
